The text below walks through data of ChEMBL document CHEMBL3044532, “Integrated control of cotton root rot disease by mixing fungal biocontrol agents and resistance inducers” (2009).

Format in all cases: functional
In test [1] the test system is Gossypium barbadense. The test can be described thus: Induction of systemic acquired resistance against Pythium debaryanum AUSB 26351 in Gossypium barbadense seeds assessed as increase of dry weight of seedling under greenhouse condition at 0.05 ml/L after 7 days.
The test system of test [2] is Gossypium barbadense. The experiment in a line: Induction of systemic acquired resistance against Pythium debaryanum AUSB 26351 in Gossypium barbadense seeds assessed as increase of germination under greenhouse condition at 0.05 ml/L after 7 days relative to control.
The test system of test [3] is Gossypium barbadense. The experiment in a line: Induction of systemic acquired resistance against Fusarium oxysporum AUSB 26325 in Gossypium barbadense seeds assessed as increase of fresh weight of seedling under greenhouse condition at 0.05 ml/L after 7 days.
Test [4] relates to Gossypium barbadense. The experiment in a line: Induction of systemic acquired resistance against Pythium debaryanum AUSB 26351 in Gossypium barbadense seeds assessed as increase of fresh weight of seedling under greenhouse condition at 0.05 ml/L after 7 days.
The subject of test [5] is Gossypium barbadense. The test can be described thus: Induction of systemic acquired resistance against Fusarium oxysporum AUSB 26325 in Gossypium barbadense seeds assessed as increase of dry weight of seedling under greenhouse condition at 0.05 ml/L after 7 days.
For test [6], the system named is Gossypium barbadense. The experiment in a line: Induction of systemic acquired resistance against Fusarium oxysporum AUSB 26325 in Gossypium barbadense seeds assessed as reduction of disease index for germination under greenhouse condition at 0.05 ml/L after 7 days relative to infected control. Also noted: scale not given: the % may be the effect or the level left.

For test [7], the system named is Gossypium barbadense. The experiment in a line: Induction of systemic acquired resistance against Fusarium oxysporum AUSB 26325 in Gossypium barbadense seeds assessed as increase of germination under greenhouse condition at 0.05 ml/L after 7 days relative to control.
In test [8] the test system is Gossypium barbadense. The experiment in a line: Induction of systemic acquired resistance against Pythium debaryanum AUSB 26351 in Gossypium barbadense seeds assessed as reduction of disease index for germination under greenhouse condition at 0.05 ml/L after 7 days relative to infected control. The arrangement: scale not given: the % may be the effect or the level left.

Consider `CSC(=O)c1cccc2nnsc12` [ACIBENZOLAR-S-METHYL], for which the Activity was found to be 0.2 g in the test on Gossypium barbadense [1]; 40% with Gossypium barbadense [2]; 8.3 g in the test on Gossypium barbadense [3]; 2 g with Gossypium barbadense [4]; 0.9 g in the test with Gossypium barbadense [5]; 45.3% in the test on Gossypium barbadense [6]. The results for the Activity in the test with Gossypium barbadense [7] and in the test with Gossypium barbadense [8] were 40.7% and 60%, respectively.
